{"source": "patent US20260207570A1", "about": "“OPTIMIZED DOSING OF LERIGLITAZONE” (MINORYX THERAPEUTICS S.L., priority 2022, published 2026)", "key": {"[1]": {"assay": "Phase 1 safety and tolerability (treatment-emergent adverse events)", "format": "in vivo, human", "experimental": "Study design: A phase 1, randomized, double blind, placebo-controlled, single-center clinical study in 33 male healthy volunteers (HV) (19-54 years, 63.2-95.7 Kg) was conducted with leriglitazone HCl and divided in two parts: a single ascending dose (SAD) with three dose levels (30, 90 and 270 mg) in fasted conditions, followed with two dose levels (90 and 270 mg) in fed conditions; a multiple ascending dose (MAD) with a double-blind, parallel-design with two dose levels (135 and 270 mg) for 8 days and a separate cohort of subjects in an open-label parallel design with two dose levels (135 and 270 mg) including cerebrospinal fluid (CSF) collection on day 8. In the fasted conditions a fasting period of at least 4 hours was required before obtaining plasma samples. The food effect (FE) was assessed by comparing fasted with fed conditions (dosing after a high-fat breakfast per FDA definition with a calculated caloric content of 918 kcal). In the MAD part (fed) the medication was taken before a normal breakfast. Leriglitazone HCl was supplied by ChemConnection and an oral suspension of leriglitazone (20% w/v kleptose, 2% ethanol in 100 mM phosphate buffer pH=7.8) at 6 mg/ml was used in the study. Safety: Safety and tolerability assessments consisted of adverse events (AEs), clinical laboratory, vital signs, 12-lead electrocardiogram (ECG), and physical examination."}, "[2]": {"substrate": "CC(O)c1ccc(CCOc2ccc(CC3SC(=O)NC3=O)cc2)nc1", "assay": "Metabolism kinetics with recombinant CYP2C8", "format": "in vitro ADME, human", "text": "CYP2C8 and CYP3A4 were identified in vitro as the major contributing enzymes of leriglitazone with CYP2C8 mostly responsible for the formation of the main metabolite M3. Kinetic parameters of human CYP2C8 and CYP3A4 mediated metabolism of leriglitazone were studied in in vitro studies using recombinant CYP3A4 and CYP2C8 enzymes (ADMESCOPE, Finland). […] As the disappearance of leriglitazone was very slow especially at high initial concentrations, the accuracy of the fit was not as good as based on M3 formation. […] Thus, it was not possible to fit the kinetic parameters Km and Vmax."}, "[3]": {"settings": "phase 1, healthy male volunteers"}, "[4]": {"settings": "other: recombinant CYP2C8, based on M3 formation"}, "[5]": {"settings": "other: recombinant CYP2C8, based on leriglitazone depletion"}}}
{"molecule": "CC(O)c1ccc(CCOc2ccc(CC3SC(=O)NC3=O)cc2)nc1.Cl", "note": "(centres unmarked) [leriglitazone HCl, 5-[[4-[2-[5-(1-hydroxyethyl)pyridin-2-yl]ethoxy]phenyl]methyl]-1,3-thiazolidine-2,4-dione hydrochloride]", "values": [{"measurement": "clinical laboratory evaluations, vital signs, ECGs and physical examinations", "setting": "[1]; phase 1, healthy male subjects", "value": "No clinically significant changes from baseline"}, {"measurement": "serious AEs", "setting": "[1]; [3]", "value": "no serious AEs reported"}, {"measurement": "severity of treatment-emergent adverse events", "setting": "[1]; [3]", "value": "of mild severity"}, {"measurement": "safety and tolerability", "setting": "[1]; single and multiple doses, healthy male subjects", "value": "safe and well tolerated"}]}
{"molecule": "human CYP2C8 (Homo sapiens) (protein, purchased ADMESCOPE, Finland) MEPFVVLVLCLSFMLLFSLWRQSCRRRKLPPGPTPLPIIGNMLQIDVKDICKSFTNFSKVYGPVFTVYFGMNPIVVFHGYEAVKEALIDNGEEFSGRGNSPISQRITKGLGIISSNGKRWKEIRRFSLTTLRNFGMGKRSIEDRVQEEAHCLVEELRKTKASPCDPTFILGCAPCNVICSVVFQKRFDYKDQNFLTLMKRFNENFRILNSPWIQVCNNFPLLIDCFPGTHNKVLKNVALTRSYIREKVKEHQASLDVNNPRDFIDCFLIKMEQEKDNQKSEFNIENLVGTVADLFVAGTETTSTTLRYGLLLLLKHPEVTAKVQEEIDHVIGRHRSPCMQDRSHMPYTDAVVHEIQRYSDLVPTGVPHAVTTDTKFRNYLIPKGTTIMALLTSVLHDDKEFPNPNIFDPGHFLDKNGNFKKSDYFMPFSAGKRICAGEGLARMELFLFLTTILQNFNLKSVDDLKNLNTTAVTKGIVSLPPSYQICFIPV", "values": [{"measurement": "Km", "setting": "[2]; [4]", "value": 34.0, "unit": "µM"}, {"measurement": "kcat", "setting": "[2]; [4]", "value": 2.27, "unit": "pmol/min/pmol CYP"}, {"measurement": "Km", "setting": "[2]; [5]", "value": 13.7, "unit": "µM"}, {"measurement": "kcat", "setting": "[2]; [5]", "value": 1.60, "unit": "pmol/min/pmol CYP"}]}
